Reference: patent US10626112B2, “Heterocyclic sulfonamide derivative and medicine comprising same” (EA PHARMA CO., LTD., priority 2014, dated 2020)

target: human TRPA1 (Homo sapiens (Human), UniProt O75762); assay: Measurement of TRPA1 antagonist activity (1): intracellular calcium increase; format: cell-based; conditions: 293T cells transfected with human TRPA1 expression plasmid; allylisothiocyanate 20 μM stimulation; intracellular calcium fluorescence; read-out: hTRPA1 IC50
Summary of the method: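 Calcium-flux readout of TRPA1 block: compound given 10 min before 20 μM (final) allylisothiocyanate, fluorescence tracked 5 min. Cells were 293T transiently expressing human TRPA1, dye-loaded 1 hr in HBSS, 20 mM HEPES, pH 7.2. Inhibition scaled between agonist-only and buffer-only responses; IC50 by sigmoid fitting.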

Chain of human TRPA1 (O75762 whole entry): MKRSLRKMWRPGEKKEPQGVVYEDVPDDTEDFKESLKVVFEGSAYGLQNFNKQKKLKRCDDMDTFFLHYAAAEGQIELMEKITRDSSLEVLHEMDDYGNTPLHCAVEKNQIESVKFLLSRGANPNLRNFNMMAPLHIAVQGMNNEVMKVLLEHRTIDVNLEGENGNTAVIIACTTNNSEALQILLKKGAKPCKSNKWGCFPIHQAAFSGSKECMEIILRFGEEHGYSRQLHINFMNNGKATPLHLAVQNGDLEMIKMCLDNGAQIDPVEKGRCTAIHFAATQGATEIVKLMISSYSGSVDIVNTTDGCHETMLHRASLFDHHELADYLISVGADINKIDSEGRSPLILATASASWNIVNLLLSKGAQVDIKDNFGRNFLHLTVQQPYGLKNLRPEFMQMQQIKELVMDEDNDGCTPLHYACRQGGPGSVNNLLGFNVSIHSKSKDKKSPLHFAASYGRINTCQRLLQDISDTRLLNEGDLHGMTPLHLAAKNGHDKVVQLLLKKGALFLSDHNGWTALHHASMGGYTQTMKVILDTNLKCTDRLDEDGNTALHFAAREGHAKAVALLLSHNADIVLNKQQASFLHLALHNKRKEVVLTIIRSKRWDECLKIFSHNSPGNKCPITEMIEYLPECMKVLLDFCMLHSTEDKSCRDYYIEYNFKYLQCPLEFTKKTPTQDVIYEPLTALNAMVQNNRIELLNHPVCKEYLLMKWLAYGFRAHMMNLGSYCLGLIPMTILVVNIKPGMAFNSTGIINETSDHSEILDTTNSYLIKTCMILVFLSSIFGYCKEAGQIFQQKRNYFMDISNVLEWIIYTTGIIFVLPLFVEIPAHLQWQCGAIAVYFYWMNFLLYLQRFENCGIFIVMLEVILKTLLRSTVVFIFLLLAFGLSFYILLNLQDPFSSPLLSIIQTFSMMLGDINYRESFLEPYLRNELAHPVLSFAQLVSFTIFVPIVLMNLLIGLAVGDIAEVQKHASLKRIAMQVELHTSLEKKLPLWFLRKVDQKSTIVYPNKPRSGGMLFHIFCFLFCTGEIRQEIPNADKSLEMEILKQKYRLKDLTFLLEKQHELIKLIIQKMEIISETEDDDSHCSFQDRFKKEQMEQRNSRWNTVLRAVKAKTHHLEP

**Q.** How did the IC50 turn out when `N#Cc1ccc(-c2ccnc(CNC(=O)[C@@H]3CCCN3S(=O)(=O)c3cc4cc(F)ccc4o3)c2)cc1` [Example 150, (2S)-N-[[4-(4-cyanophenyl)-2-pyridyl]methyl]-1-(5-fluorobenzofuran-2-yl)sulfonyl-pyrrolidine-2-carboxamide] was run?
**A.** 13 nM

**Q.** Which IC50 does the source give for `CN(C(=O)OC(C)(C)C)c1ccc(-c2ccc(F)c(CNC(=O)C3CCCN3S(=O)(=O)c3cc4ccccc4o3)c2)cn1` [Example 175, tert-butyl N-[5-[3-[[[(2S)-1-benzofuran-2-ylsulfonyl)pyrrolidine-2-carbonyl]amino]methyl]-4-fluoro-phenyl]-2-pyridyl]-N-methylcarbamate] here?
**A.** 13 nM

**Q.** How did the IC50 turn out when `C[C@H](NS(=O)(=O)c1cc2cc(F)ccc2o1)C(=O)NCc1ccnc(-c2ccc(C(F)(F)F)cn2)c1` [Example 237, (2S)-2-[(5-fluorobenzofuran-2-yl)sulfonylamino]-N-[[2-[5-(trifluoromethyl)-2-pyridyl]-4-pyridyl]methyl]propanamide] was run?
**A.** 270 nM

**Q.** `O=C(NCc1ccc(Oc2cccc(C(F)(F)F)c2)cc1)[C@@H]1CCCN1S(=O)(=O)c1cc2ccccc2o1` [Example 50, (2S)-1-(benzofuran-2-ylsulfonyl)-N-[[4-[3-(trifluoromethyl)phenoxy]phenyl]-methyl]pyrrolidine-2-carboxamide] was tested. Which IC50 did it give?
**A.** 160 nM

**Q.** How did the IC50 turn out when `C[C@H](NS(=O)(=O)c1cc2cnccc2o1)C(=O)NCc1cc(-c2ccc(C(F)(F)F)cc2)ncn1` [Example 301, (2S)-2-(furo[3,2-c]pyridin-2-ylsulfonylamino)-N-[[6-[4-(trifluoromethyl)phenyl]pyrimidin-4-yl]methyl]propanamide] was run?
**A.** 30 nM

**Q.** `O=C(NCc1ccnc(-c2ccc(C(F)(F)F)cc2)c1)[C@@H]1CCCN1S(=O)(=O)c1cc2cc(F)ccc2o1` [Example 128, (2S)-1-(5-fluorobenzofuran-2-yl)sulfonyl-N-[[2-[4-(trifluoromethyl)phenyl]-4-pyridyl]methyl]pyrrolidine-2-carboxamide] was tested. Which IC50 did it give?
**A.** 0.61 nM

**Q.** Which IC50 does the source give for `O=C(NCc1ccccc1-c1ccccc1)[C@@H]1CCCN1S(=O)(=O)c1cc2cc(F)ccc2o1` [Example 78, (2S)-1-(5-fluorobenzofuran-2-yl)sulfonyl-N-[(2-phenylphenyl)methyl]pyrrolidine-2-carboxamide] here?
**A.** 130 nM

**Q.** With `COc1cc(CNC(=O)[C@@H]2CCCN2S(=O)(=O)c2cc3ccccc3o2)cc(-c2ccc(C(F)(F)F)nc2)c1` [Example 310, (2S)-1-(benzofuran-2-ylsulfonyl)-N-[[3-methoxy-5-[6-(trifluoromethyl)-3-pyridyl]phenyl]methyl]pyrrolidine-2-carboxamide] as the compound, how does the IC50 read?
**A.** 2.5 nM

**Q.** With `O=C(NCc1ccnc(-c2ccc(C(F)(F)F)nc2)c1)[C@@H]1CCCN1S(=O)(=O)c1cc2ccccc2o1` [Example 124, (2S)-1-(benzofuran-2-ylsulfonyl)-N-[[2-[6-(trifluoromethyl)-3-pyridyl]-4-pyridyl]methyl]pyrrolidine-2-carboxamide] as the compound, how does the IC50 read?
**A.** 3.4 nM

**Q.** For `O=C(NCc1ccc(O)c(-c2ccc(C(F)(F)F)cn2)c1)[C@@H]1CCCN1S(=O)(=O)c1cc2ccccc2o1` [Example 193, (2S)-1-(benzofuran-2-ylsulfonyl)-N-[[4-hydroxy-3-[5-(trifluoromethyl)-2-pyridyl]phenyl]methyl]pyrrolidine-2-carboxamide], which IC50 is on record?
**A.** 2.2 nM

**Q.** For `O=C(NCc1cccc(OCc2cncc(C(F)(F)F)c2)c1)[C@@H]1CCCN1S(=O)(=O)c1cc2ccccc2o1` [Example 9, (2S)-1-(benzofuran-2-ylsulfonyl)-N-[[3-[[5-(trifluoromethyl)-3-pyridyl]methoxy]phenyl]-methyl]pyrrolidine-2-carboxamide], which IC50 is on record?
**A.** 7.6 nM

**Q.** With `O=C(NCc1ccc(O)c(-c2cnc(C(F)(F)F)cn2)c1)[C@@H]1CCCN1S(=O)(=O)c1cc2ccccc2o1` [Example 214, (2S)-1-(benzofuran-2-ylsulfonyl)-N-[[4-hydroxy-3-[5-(trifluoromethyl)-pyrazin-2-yl]phenyl]-methyl]pyrrolidine-2-carboxamide] as the compound, how does the IC50 read?
**A.** 13 nM

**Q.** `O=C(NCc1cc(-c2ccc(C(F)(F)F)nc2)ncn1)[C@@H]1CCCN1S(=O)(=O)c1cc2cc(F)ccc2o1` [Example 224, (2S)-1-(5-fluorobenzofuran-2-yl)sulfonyl-N-[[6-[6-(trifluoromethyl)-3-pyridyl]pyrimidin-4-yl]methyl]pyrrolidine-2-carboxamide] was tested. Which IC50 did it give?
**A.** 0.66 nM

**Q.** For `O=C(NCc1cccc(OCc2ccc(C(F)(F)F)cc2)c1)[C@@H]1CCCN1S(=O)(=O)c1cc2ccc(F)cc2o1` [Example 40, (2S)-1-(6-fluorobenzofuran-2-yl)sulfonyl-N-[[3-[[4-(trifluoromethyl)phenyl]methoxy]-phenyl]methyl]pyrrolidine-2-carboxamide], which IC50 is on record?
**A.** 96 nM

**Q.** With `O=C(NCc1cc(OC(F)(F)F)ccc1F)[C@@H]1CCCN1S(=O)(=O)c1cc2cc(F)ccc2o1` [Example 71, (2S)-1-(5-fluorobenzofuran-2-yl)sulfonyl-N-[[2-fluoro-5-(trifluoromethoxy)phenyl]methyl]-pyrrolidine-2-carboxamide] as the compound, how does the IC50 read?
**A.** 3.2 nM

**Q.** How did the IC50 turn out when `N#Cc1cccc(-c2ccc(CNC(=O)[C@@H]3CCCN3S(=O)(=O)c3cc4ccccc4o3)cc2)c1` [Example 171, (2S)-1-(benzofuran-2-ylsulfonyl)-N-[[4-(3-cyanophenyl)phenyl]methyl]-pyrrolidine-2-carboxamide] was run?
**A.** 510 nM

**Q.** Which IC50 does the source give for `O=C(NCc1cc(F)cc(OCc2ccncc2)c1)[C@@H]1CCCN1S(=O)(=O)c1cc2cc(F)ccc2o1` [Example 35, (2S)-1-(5-fluorobenzofuran-2-yl)sulfonyl-N-[[3-fluoro-5-(4-pyridylmethoxy)-phenyl]methyl]-pyrrolidine-2-carboxamide] here?
**A.** 8 nM

**Q.** Which IC50 does the source give for `O=C(NCc1cccc(SCc2ccccc2)c1)[C@@H]1CCCN1S(=O)(=O)c1cc2ccccc2o1` [Example 57, (2S)-1-(benzofuran-2-ylsulfonyl)-N-[(3-benzylsulfanylphenyl)methyl]pyrrolidine-2-carboxamide] here?
**A.** 16 nM

**Q.** `O=C(NCc1ccnc(-c2ccc(C(F)(F)F)cn2)c1)[C@@H]1CCCN1S(=O)(=O)c1cc2cc(F)ccc2o1` [Example 221, (2S)-1-(5-fluorobenzofuran-2-yl)sulfonyl-N-[[2-[5-(trifluoromethyl)-2-pyridyl]-4-pyridyl]methyl]pyrrolidine-2-carboxamide] was tested. Which IC50 did it give?
**A.** 6.6 nM

**Q.** How did the IC50 turn out when `C#CCN([C@@H](C)C(=O)NCc1ccnc(-c2ccc(C(F)(F)F)nc2)c1)S(=O)(=O)c1cc2cc(F)ccc2o1` [Example 314, (2S)-2-[(5-fluorobenzofuran-2-yl)sulfonyl-prop-2-ynyl-amino]-N-[[2-[6-(trifluoromethyl)-3-pyridyl]-4-pyridyl]methyl]propanamide] was run?
**A.** 4.6 nM

**Q.** `O=C(NCc1cccc(OCc2ccnc(C(F)(F)F)c2)c1)[C@@H]1CCCN1S(=O)(=O)c1cc2cnccc2o1` [Example 274, (2S)-1-furo[3,2-c]pyridin-2-ylsulfonyl-N-[[3-[[2-(trifluoromethyl)-4-pyridyl]methoxy]phenyl]-methyl]pyrrolidine-2-carboxamide] was tested. Which IC50 did it give?
**A.** 9.8 nM

**Q.** `C[C@H](NS(=O)(=O)c1cc2cc(F)ccc2o1)C(=O)NCc1cncc(-c2ccc(C(F)(F)F)cn2)c1` [Example 246, (2S)-2-[(5-fluorobenzofuran-2-yl)sulfonylamino]-N-[[5-[5-(trifluoromethyl)-2-pyridyl]-3-pyridyl]methyl]propanamide] was tested. Which IC50 did it give?
**A.** 110 nM
